Measurements published in US20240010726A1, “LFA-1 SIGNALLING MEDIATOR FOR USE IN CANCER THERAPY” (Universität Basel, priority 2020, published 2024).

What was measured:
[1] = system: murine WT and LFA-1^−/− CTLs; assay: Glycolytic switch of murine WT and LFA-1−/− CTLs; format: cell-based; details: anti-CD3/28 Ab; 0 mM vs 1.2 mM Mg^2+
Protocol: FIG. 3: Magnesium regulates LFA-1 mediated T cell activation and cytotoxicity as well BiTE- and CAR T-cell functionality. (a) Glycolytic switch of murine WT and LFA-1^-/- CTLs upon injection of anti-CD3/28 Ab in medium containing 1.2 mM Mg^2+ and 0 mM Mg^2+, presented as quantification of summarized data with n=4 mice. (b) Calcium flux in WT and LFA-1^-/- Jurkat T cells stimulated with anti-CD3 Ab in 1.2 mM and 0 mM Mg^2+ medium, respectively. Cells were loaded with Fluo4, and signal intensity as recorded by plate reader, was normalized to unstimulated baseline values. […] Quantified results of n=3 mice with 3 technical replicates each. […] The effector to target cell ratio was 3:1. Results are quantified of n=3 mice with 3 technical replicates each. (e) Representative CD11a (LFA-1) surface expression on human naïve and EM CD8 T cells, PHA T cell blasts and REP T cells, assessed by flow cytometry. […] The effector to target cell ratio was 1:1. Data is presented as quantified results of n=5 healthy donors (f, g, h), n=3 healthy donors with 2 technical replicates each or n=1 healthy donor with 4 technical replicates (j). […] Data is presented as quantified results of n=1 healthy donor with 4 technical replicates. […] (p) Abundance of IFNγ in cell culture supernatants corresponding to the conditions depicted in (o) at 24 hours was determined by ELISA (n=8, 3 independent experiments). […]

[2] = system: murine WT and LFA-1^−/− CTLs; assay: Degranulation marker CD107a on murine WT and LFA-1−/− CTLs; format: cell-based; details: 8 h anti-CD3/anti-CD28 Ab; 0 mM vs 1.2 mM Mg^2+
[3] = system: T2 target cells; format: cell-based, human
[4] = system: PC3-PIP tumor cells; assay: Anti-PSMA CAR T cell in vivo experiment with Mg2+-restricted diet; parameters: species or system NSG mice; details: Mg^2+-depleted diet vs control diet; anti-PSMA CAR T cells i.v.
Protocol: FIG. 3: Magnesium regulates LFA-1 mediated T cell activation and cytotoxicity as well BiTE- and CAR T-cell functionality. (a) Glycolytic switch of murine WT and LFA-1^−/− CTLs upon injection of anti-CD3/28 Ab in medium containing 1.2 mM Mg^2+ and 0 mM Mg^2+, presented as quantification of summarized data with n=4 mice. (b) Calcium flux in WT and LFA-1^−/− Jurkat T cells stimulated with anti-CD3 Ab in 1.2 mM and 0 mM Mg^2+ medium, respectively. Cells were loaded with Fluo4, and signal intensity as recorded by plate reader, was normalized to unstimulated baseline values. […] Quantified results of n=3 mice with 3 technical replicates each. […] The effector to target cell ratio was 3:1. Results are quantified of n=3 mice with 3 technical replicates each. (e) Representative CD11a (LFA-1) surface expression on human naïve and EM CD8 T cells, PHA T cell blasts and REP T cells, assessed by flow cytometry. […] Data is presented as quantified results of n=5 healthy donors (f, g, h), n=3 healthy donors with 2 technical replicates each or n=1 healthy donor with 4 technical replicates (j). […] Data is presented as quantified results of n=1 healthy donor with 4 technical replicates. […] (p) Abundance of IFNγ in cell culture supernatants corresponding to the conditions depicted in (o) at 24 hours was determined by ELISA (n=8, 3 independent experiments). […] Tumor volume was monitored twice per week. […]

[Mg+2] [Mg^2+, Magnesium]
Glycolytic switch of LFA-1^−/− CTLs [1]: independent from extracellular Mg^2+ concentrations
Glycolytic switch of WT CTLs [1]: reduced glycolytic switching
CD107a degranulation of LFA-1^−/− CTLs [2]: unaffected
CD107a degranulation of WT CTLs [2]: reduced CTL degranulation
Cytotoxicity of REP T cells (caspase-3 activity in T2 target cells) [3]: significantly increased
CAR T cell-mediated tumor rejection (tumor growth) [4]: negatively impacted CAR T cell-mediated tumor-rejection
